The nature of this data set: RP, Thermo Scientific Acclaim RSLC 120 C18, 100 × 2.1 mm, 2.2 µm, 30 °C, 0.2 mL/min, estimated dead time 1.1 min; A: 90% water + 10% methanol + 0.01% formic acid + 5 mM ammonium formate, pH 3.61; B: methanol + 0.01% formic acid + 5 mM ammonium formate, pH 3.61; gradient (min/%B) 0/1 1/1 2/39 13/99.9 15/99.9 15.1/1 20.1/1. Conditions: stereoisomer not certain.

Molecules are shown by their SMILES.

The source of these data is the RepoRT retention time repository (doi:10.1021/acs.analchem.2c02893).

Regarding `Cc1ncsc1CCCl` [Clomethiazole], the LC retention time was 6.69 min. Then `CN(C)CCCN1c2ccccc2CCc2ccc(Cl)cc21` [Clomipramine], with 9.21 min; and `Nc1ccc2c(c1)C(c1ccccc1Cl)=NCC(=O)N2` [Clonazepam- 7-Amino], with 4.86 min; and `O=C1CN=C(c2ccccc2Cl)c2cc([N+](=O)[O-])ccc2N1` [Clonazepam], with 7.61 min. The same measure for `Cc1nnc2n1-c1ccc([N+](=O)[O-])cc1C(c1ccccc1Cl)=NC2` [Clonazolam]: 7.24 min; for `Clc1cccc(Cl)c1NC1=NCCN1` [Clonidine]: 3.83 min; for `CC1CCCC(C)N1NC(=O)c1ccc(Cl)c(S(N)(=O)=O)c1` (centres undefined) [Clopamide]: 6.01 min.

Take `Clc1ccc(C(OCCN2CCCCC2)c2ccccc2)cc1` (centres undefined) [Cloperastine]: the LC retention time was 8.46 min. The same measure for `O=C(O)C(c1ccccc1Cl)N1CCc2sccc2C1` (centres undefined) [Clopidogrel Carbon acid]: 5.56 min; for `COC(=O)C(c1ccccc1Cl)N1CCc2sccc2C1` (centres undefined) [Clopidogrel]: 11.8 min. Regarding `Cc1[nH]c(C)c(Cl)c(=O)c1Cl` [Clopidol], the LC retention time was 4.2 min. The same measure for `O=C(O)c1nc(Cl)ccc1Cl` [Clopyralid]: 3.06 min; for `CC(C)NCC(O)c1ccccc1Cl` (centres undefined) [Clorprenaline]: 4.76 min.

Regarding `CNC(=N[N+](=O)[O-])NCc1cnc(Cl)s1` [Clothiandin], the LC retention time is 4.9 min.

For the molecule `CN1CCN(C2=Nc3ccccc3Sc3ccc(Cl)cc32)CC1` [Clothiapine], the LC retention time is 8.96 min. The same measure for `CCc1cc2c(s1)N(C)C(=O)CN=C2c1ccccc1Cl` [Clotiazepam]: 10.2 min.

Take `Clc1ccccc1C(c1ccccc1)(c1ccccc1)n1ccnc1` [Clotrimazole]: the LC retention time is 11.2 min. For `Clc1ccc2c(c1)N=C(N1CCNCC1)c1ccccc1N2` [Clozapine-Nor], the LC retention time is 7.29 min. The same measure for `CN1CCN(C2=Nc3cc(Cl)ccc3Nc3ccccc32)CC1` [Clozapine]: 7.19 min; for `CCOC(=O)C1C(OC(=O)c2ccccc2)CC2CCC1N2C` (centres undefined) [Cocaethylene]: 5.46 min; for `COC(=O)C1C(OC(=O)c2ccccc2)CC2CCC1N2C` (centres undefined) [Cocaine]: 4.84 min.

Turning to `COc1ccc2c3c1OC1C(O)CCC4C(C2)N(C)CCC341` (centres undefined) [Codeine-Dihydro], the LC retention time is 3.36 min. The same measure for `COc1ccc2c3c1OC1C(O)C=CC4C(C2)NCCC341` (centres undefined) [Codeine-Nor]: 3.5 min; for `COc1ccc2c3c1OC1C(O)C=CC4C(C2)N(C)CCC341` (centres undefined) [Codeine]: 3.4 min; for `CC12CCC(=O)C=C1CCC1C2C(O)CC2(C)C(C(=O)CO)CCC12` (centres undefined) [Corticosterone]: 8.74 min. Then `CC12CCC(=O)C=C1CCC1C2C(=O)CC2(C)C1CCC2(O)C(=O)CO` (centres undefined) [Cortisone E  (4-Pregnene-17.21-diol-3.11.20-trione)], with 7.41 min; and `CN1C(=O)C(O)CC1c1cccnc1` (centres undefined) [Cotinine-Hydroxy], with 3.13 min; and `CC(=O)CC(c1ccc(Cl)cc1)c1c(O)c2ccccc2oc1=O` (centres undefined) [Coumachlor], with 10.2 min.

Regarding `CCOP(=S)(OCC)Oc1ccc2c(C)c(Cl)c(=O)oc2c1` [Coumaphos], the LC retention time is 11.2 min.

On to `Cc1cc(N(C)C)nc(Cl)n1` [Crimidine], for which the LC retention time was 6.2 min.

As for `C=C(c1ccccc1OCc1cccc(Cl)c1)n1ccnc1` [Croconazole], the LC retention time was 10.7 min.

As for `CC=CC(=O)N(CC)c1ccccc1C` [Crotamiton], the LC retention time was 9.24 min.

Turning to `CC=CC(=O)N(CC)C(CC)C(=O)N(C)C` (centres undefined) [Crotethamide], the LC retention time was 6.13 min. For `COP(=O)(OC)OC(C)=CC(=O)OC(C)c1ccccc1` (centres undefined) [Crotoxyphos], the LC retention time is 9.39 min. In the case of `CNP(=O)(OC)Oc1ccc(C(C)(C)C)cc1Cl` (centres undefined) [Crufomate], the LC retention time is 10.5 min. Then `CCCCCn1nc(C(=O)NC(C)(C)c2ccccc2)c2ccccc21` [Cumyl-PINACA], with 12.5 min. The same measure for `CC(CN(C)C)CN1c2ccccc2Sc2ccc(C#N)cc21` (centres undefined) [Cyamemazine]: 7.52 min; for `CCNc1nc(Cl)nc(NC(C)(C)C#N)n1` [Cyanazine]: 6.55 min; for `CCOP(=S)(Oc1ccc(C#N)cc1)c1ccccc1` (centres undefined) [Cyanofenphos]: 10.9 min. As for `COP(=S)(OC)Oc1ccc(C#N)cc1` [Cyanophos], the LC retention time is 8.27 min. Then `Cc1ccc(-c2c(Cl)nc(C#N)n2S(=O)(=O)N(C)C)cc1` [Cyazofamid], with 10.3 min; and `O=S(=O)(O)NC1CCCCC1` [Cyclamic acid], with 6.99 min; and `CN1CCN(C(c2ccccc2)c2ccccc2)CC1` [Cyclizine], with 6.94 min. With `CCSC(=O)N(CC)C1CCCCC1` [Cycloate], the LC retention time is 11.7 min.

As for `CN(C)CCC=C1c2ccccc2C=Cc2ccccc21` [Cyclobenzaprine], the LC retention time was 7.95 min. Then `CC1CC(C)C(=O)C(C(O)CC2CC(=O)NC(=O)C2)C1` (centres undefined) [Cycloheximide], with 5.99 min; and `CN(C)CCOC(=O)C(c1ccccc1)C1(O)CCCC1` (centres undefined) [Cyclopentolate], with 6.16 min; and `CCCc1nn(C)c2c(=O)[nH]c(-c3cc(S(=O)(=O)N4CCN(C5CCCC5)CC4)ccc3OCC)nc12` [Cyclopentynafil], with 9.01 min.

On to `O=P1(N(CCCl)CCCl)NCCCO1` (centres undefined) [Cyclophosphamide], for which the LC retention time is 6.24 min. With `COc1cc(C=C2CCCC(=Cc3ccc(O)c(OC)c3)C2=O)ccc1O` [Cyclovalone], the LC retention time is 9.59 min. The same measure for `CN(C)C(=O)NC1CCCCCCC1` [Cycluron]: 8.47 min. Then `CC1(C)C(C=C(Cl)Cl)C1C(=O)OC(C#N)c1ccc(F)c(Oc2ccccc2)c1` (centres undefined) [Cyfluthrin (Baythroid)], with 13 min. The same measure for `CC1(C)C(C=C(Cl)C(F)(F)F)C1C(=O)OC(C#N)c1cccc(Oc2ccccc2)c1` (centres undefined) [Cyhalothrin (lambda-)]: 13 min; for `CCNC(=O)NC(=O)C(C#N)=NOC` [Cymoxanil]: 5.6 min; for `CC(C)Nc1nc(Cl)nc(NC2CC2)n1` [Cyprazin]: 8.22 min. With `CC(C1CC1)C(O)(Cn1cncn1)c1ccc(Cl)cc1` (centres undefined) [Cyproconazole], the LC retention time was 9.89 min. The same measure for `Cc1cc(C2CC2)nc(Nc2ccccc2)n1` [Cyprodinil]: 11 min; for `CN1CCC(=C2c3ccccc3C=Cc3ccccc32)CC1` [Cyproheptadine]: 7.89 min; for `CC(=O)C1(O)CCC2C3C=C(Cl)C4=CC(=O)C5CC5C4(C)C3CCC21C` (centres undefined) [Cyproterone]: 10.1 min.
